Assay [1] has as its target T1, Adenosine receptor A3 (Homo sapiens) (UniProt P0DMS8).
T1 sequence (whole entry): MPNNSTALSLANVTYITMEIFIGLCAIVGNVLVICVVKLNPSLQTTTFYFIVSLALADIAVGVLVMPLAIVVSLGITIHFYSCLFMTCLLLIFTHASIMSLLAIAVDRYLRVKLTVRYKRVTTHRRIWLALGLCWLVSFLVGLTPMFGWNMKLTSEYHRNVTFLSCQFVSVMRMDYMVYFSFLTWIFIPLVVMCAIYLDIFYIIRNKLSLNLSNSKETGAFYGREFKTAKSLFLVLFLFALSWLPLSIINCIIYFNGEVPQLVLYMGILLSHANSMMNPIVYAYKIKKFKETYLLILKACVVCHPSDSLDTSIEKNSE
Description: Binding affinity against human AAdenosine A3 receptor in CHO cells. The format is cell-based.

For assay [2], the target named is T2, Adenosine receptor A3 (Homo sapiens, UniProt P0DMS8).
T2 sequence (P0DMS8 whole entry): T1 sequence (whole entry)
Description: Binding affinity against human Adenosine A3 receptor in CHO cells. In kind it is cell-based.

Each structure is given as a SMILES string.

As a reminder, the Kd is the equilibrium constant for the complex coming apart.

`C=CCn1cc2c(nc(NC(=O)Nc3ccc(OC)cc3)n3nc(-c4ccco4)nc23)n1`: in assay [1], the Bmax was determined as 297 fmol/mg. Also, the Kd in assay [2] stood at 0.82 nM.

The record behind these values is ChEMBL document CHEMBL1133369, “Synthesis and preliminary biological evaluation of [3H]-MRE 3008-F20: the first high affinity radioligand antagonist for the human A3 adenosine receptors” (Bioorg Med Chem Lett, 2000).
